# Measured values published in PMC6306559 (Pharmacology Research & Perspectives, 2018).
# Read-outs that look alike come from different tables or passages of the source.
# Columns and labels:
# [1] = tested on: α1A‐AR expressing COS‐7 cells; assay: Phenylephrine-induced CRE reporter assay; assay type: cell-based; settings: for Effect of inhibitor on diazepam modulation of phenylephrine‐stimulated CRE response / Cotreatment with diazepam, effect on phenylephrine CRE response / Modulation of phenylephrine CRE response by PDE inhibitor: 0.1 μmol/L phenylephrine; for Modulation of phenylephrine CRE response by PDE inhibitor: IBMX 500 μmol/L, rolipram 10 μmol/L
# Method: (§1) cAMP response element (CRE) response assays were performed as previously described by transfecting WT α1A‐ and α1B‐AR stably expressing COS‐7 cells, parental COS‐7 cells or parental HEK293T cells, with a β‐galactosidase expression plasmid under the control of the CRE promoter.10 CRE reporter‐transfected cells were seeded into 96‐well culture plates for 24 hours before treatment with various compounds for 6 hours at 37°C 5% CO2. Media was aspirated, and the cells frozen at −80°C for at least 24 hours before measurement of cellular β‐galactosidase expression using chlorophenol red‐β‐D‐galactopyranoside. Ligands were made up in 0.5% FBS DMEM media. […] HEK293T cells transiently transfected with GPR68 and pCRE were stimulated with sodium bicarbonate‐free, low glucose DMEM, supplemented with 20 mmol/L HEPES and 0.5% FBS at pH 6.8, 7.0, 7.2, 7.4, and 7.8. The pH was adjusted at 37°C with NaOH. Cells were incubated for 6 hours at 37°C, in a room atmosphere incubator.
# Nuclear magnetic resonance (NMR) data were processed in Topspin 3.5 using squared cosine‐bells in both dimensions and zero‐filled once, prior to Fourier‐transformation. All other data was analyzed with Graphpad prism 7 (San Diego, CA, USA). All error bars are standard deviation (SD) from three independent experiments. Competition binding assays were performed in duplicate wells. Curves were fit with one site nonlinear regression. For whole cell QAPB binding, the mean QAPB fluorescence intensity (MFI) of at lease 5000 cells was measured, and plotted against QAPB concentration. Values reported represent the mean and SD of at least three K d values calculated from separate measurements. Ca^2+ mobilization data were performed in triplicate wells and normalized to the peak response elicited by 3 μmol/L ionomycin. CRE assay was conducted in triplicate, and data were normalized to the response elicited by the vehicle. Curves were fitted with three variable nonlinear regressions. For GPR68 assays, responses were normalized to CRE response at pH 6.8 (100%) and pH 7.8 (0%).
# [2] = tested on: α1A‐AR expressing COS‐7 cells; assay type: cell-based, human; settings: 10 μmol/L forskolin; for Modulation of forskolin CRE response by PDE inhibitor: IBMX 500 μmol/L, rolipram 10 μmol/L
# [3] = biological target: α1B‐AR #15; settings: previously reported; read-out: K d of QAPB; cited from earlier work
# [4] = biological target: α1A‐AR A4; settings: previously reported; read-out: K d of QAPB; cited from earlier work
# [5] = biological target: T1, WT α1B‐AR (Homo sapiens, UniProt P35368); assay: Whole cell QAPB saturation binding by flow cytometry; settings: COS‐7 cells, read-out: K d of QAPB
# T1 construct: COS‐7 cells stably expressing unmodified α1B‐AR; expressed in transfected cells
# T1 sequence (P35368 1-520): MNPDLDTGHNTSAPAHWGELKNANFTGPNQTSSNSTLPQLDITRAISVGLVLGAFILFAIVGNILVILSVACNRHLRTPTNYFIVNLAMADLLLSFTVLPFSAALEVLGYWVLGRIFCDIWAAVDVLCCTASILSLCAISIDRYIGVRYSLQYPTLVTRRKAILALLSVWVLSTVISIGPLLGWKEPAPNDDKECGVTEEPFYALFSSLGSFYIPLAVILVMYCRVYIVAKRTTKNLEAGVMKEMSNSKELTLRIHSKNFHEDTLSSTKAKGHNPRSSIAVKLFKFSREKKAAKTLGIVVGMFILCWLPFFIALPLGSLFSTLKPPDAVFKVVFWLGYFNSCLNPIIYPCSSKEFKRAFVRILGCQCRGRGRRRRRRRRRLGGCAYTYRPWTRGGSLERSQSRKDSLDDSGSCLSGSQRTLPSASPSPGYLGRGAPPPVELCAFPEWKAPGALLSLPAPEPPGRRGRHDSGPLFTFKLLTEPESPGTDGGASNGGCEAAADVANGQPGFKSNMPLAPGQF
# Method: Fifty microliter of the cell suspension was added to each well of a V‐bottom 96‐well plate (Sarstead, Nümbrecht, Germany). […] To determine nonspecific binding, cells were exposed to QAPB at the same concentrations as above, but in the presence of 100 μmol/L phentolamine. The cells were incubated with ligands for 1 hour at 20°C prior to detection of bound QAPB with flow cytometry using CytoFLEX LX flow cytometer (Beckman Coulter, Brea, CA, USA).
# [6] = tested on: α1B‐AR expressing COS‐7 cells; assay: Phenylephrine-induced CRE reporter assay; assay type: cell-based
# [7] = tested on: α1A‐AR A4; settings: for QAPB displacement: 10 nmol/L QAPB, 2 hours, benzodiazepines up to 200 μmol/L
# [8] = tested on: α1B‐AR #15; assay: QAPB competition binding at purified thermostabilized receptor on paramagnetic beads; settings: for QAPB displacement: 10 nmol/L QAPB, 2 hours, benzodiazepines up to 200 μmol/L
# [9] = tested on: guinea pig PDE‐4; settings: cited from earlier work; for Potency relative to diazepam: benzodiazepines unsubstituted at N‐1
# [10] = tested on: untransfected HEK293T cells; assay: Isoprenaline-induced CRE reporter assay; assay type: cell-based, human; settings: 50 μmol/L diazepam
# [11] = biological target: T2, GPR68 (Homo sapiens, UniProt Q15743); assay: GPR68 pH-stimulated CRE reporter assay; assay type: cell-based; settings: pH 7.2; HEK293T cells transfected with GPR68
# T2 construct: expressed in transfected cells; host or cells: HEK293T (transient)
# Method: as §1, with “Cells were incubated for 6 hours at 37°C, in a room atmosphere incubator.” left out
# Nuclear magnetic resonance (NMR) data were processed in Topspin 3.5 using squared cosine‐bells in both dimensions and zero‐filled once, prior to Fourier‐transformation. All other data was analyzed with Graphpad prism 7 (San Diego, CA, USA). […] For whole cell QAPB binding, the mean QAPB fluorescence intensity (MFI) of at lease 5000 cells was measured, and plotted against QAPB concentration. Values reported represent the mean and SD of at least three K d values calculated from separate measurements. […]
# [12] = tested on: untransfected human embryonic kidney 293T cells; assay: Forskolin-induced CRE reporter assay; assay type: cell-based; settings: 50 μmol/L diazepam
# [13] = tested on: purified guinea pig PDE‐4; settings: cited from earlier work
# [14] = biological target: T3, WT α1A‐AR (Homo sapiens, UniProt P35348); assay: Intracellular Ca2+ mobilization in stably expressing COS‐7 cells; assay type: cell-based; settings: for Effect on Ca2+ mobilization: 0 to 50 μmol/L, absence or presence of 10 nmol/L phenylephrine
# T3 construct: expressed in transfected cells
# T3 sequence (P35348 1-466): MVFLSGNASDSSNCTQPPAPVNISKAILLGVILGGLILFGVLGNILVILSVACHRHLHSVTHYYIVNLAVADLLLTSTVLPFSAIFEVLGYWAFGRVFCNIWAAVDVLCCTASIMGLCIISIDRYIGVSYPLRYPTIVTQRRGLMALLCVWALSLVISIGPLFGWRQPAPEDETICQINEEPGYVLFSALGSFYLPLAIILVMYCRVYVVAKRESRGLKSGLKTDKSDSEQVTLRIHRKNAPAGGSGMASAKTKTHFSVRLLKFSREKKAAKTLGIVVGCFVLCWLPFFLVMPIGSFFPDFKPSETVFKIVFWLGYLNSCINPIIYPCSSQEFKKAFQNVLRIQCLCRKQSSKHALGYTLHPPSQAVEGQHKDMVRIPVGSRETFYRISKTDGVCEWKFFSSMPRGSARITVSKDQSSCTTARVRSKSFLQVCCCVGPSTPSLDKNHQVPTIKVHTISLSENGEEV
# [15] = biological target: T1, WT α1B‐AR; assay: as above; assay type: cell-based; settings: for Effect on Ca2+ mobilization: 0 to 50 μmol/L, absence or presence of 10 nmol/L phenylephrine
# [16] = tested on: untransfected COS‐7 cells; assay: Phenylephrine-induced CRE reporter assay; assay type: cell-based; settings: 50 μmol/L diazepam; cells do not express α1A‐AR and α1B‐AR
# Method: as §1
# [17] = tested on: α1A‐AR A4; settings: 500 μmol/L ligand, 5 μmol/L receptor in DDM, with and without 10 μmol/L prazosin; controls DDM alone and enNTS1
# [18] = 2.5 mmol/L phenylephrine, increasing diazepam
# [19] = not in untransfected COS‐7 cells
# T2 sequence (Q15743 whole entry, species assumed): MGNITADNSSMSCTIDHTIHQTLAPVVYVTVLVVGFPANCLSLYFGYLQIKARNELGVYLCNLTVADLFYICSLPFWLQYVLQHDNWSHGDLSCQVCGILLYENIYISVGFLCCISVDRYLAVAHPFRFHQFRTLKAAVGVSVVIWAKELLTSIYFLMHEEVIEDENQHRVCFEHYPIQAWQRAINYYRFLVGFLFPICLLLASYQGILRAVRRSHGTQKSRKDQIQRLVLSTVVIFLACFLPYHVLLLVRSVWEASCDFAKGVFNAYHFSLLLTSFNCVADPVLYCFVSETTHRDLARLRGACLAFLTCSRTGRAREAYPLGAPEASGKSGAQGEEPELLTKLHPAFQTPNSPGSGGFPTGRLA
compound,measurement,setting,value
Cl.NCCCCCCNS(=O)(=O)c1cccc2c(Cl)cccc12 [W‐7 hydrochloride],Effect of inhibitor on diazepam modulation of phenylephrine‐stimulated CRE response,[1]; 50 μmol/L diazepam,significantly reduced both the phenylephrine response and the diazepam modulation of the CRE response
same,Effect of inhibitor on diazepam modulation of forskolin‐stimulated CRE response,[2]; 50 μmol/L diazepam,had no significant effect on forskolin stimulation
COc1ccc(C2CNC(=O)C2)cc1OC1CCCC1 (stereo not shown) [rolipram],"Cotreatment with diazepam, effect on phenylephrine CRE response",[1]; 50 μmol/L diazepam,had no additional positive modulatory effect
same,Modulation of phenylephrine CRE response by PDE inhibitor,[1],positively modulated the CRE response of phenylephrine to a similar level as diazepam
same,"Cotreatment with diazepam versus rolipram alone, forskolin CRE response",[2]; 50 μmol/L diazepam,significantly decreased
same,"Cotreatment with diazepam, effect on forskolin CRE response",[2]; 50 μmol/L diazepam,no additive effect was observed
same,Modulation of forskolin CRE response by PDE inhibitor,[2],positively modulated the CRE response of forskolin
NCCOB(c1ccccc1)c1ccccc1 [2‐APB],Effect of inhibitor on diazepam modulation of phenylephrine‐stimulated CRE response,[1]; 50 μmol/L diazepam,had no significant effect
same,Effect of inhibitor on diazepam modulation of forskolin‐stimulated CRE response,[2]; 50 μmol/L diazepam,had no significant effect
quinazoline piperazine bodipy [QAPB],Kd,[3],0.0085 µM
same,Kd,[4],0.0116 µM
same,Kd,[5]; absence of diazepam,0.012 ± 0.003 µM
same,Kd,[5]; presence of 50 μmol/L diazepam,0.02 ± 0.013 µM
CN1C(=O)CN=C(c2ccccc2)c2cc(Cl)ccc21 [diazepam],Modulation of phenylephrine potency in CRE assay,[1]; 50 μmol/L diazepam,positively modulated the potency of phenylephrine
same,EC50,"[1]; COS-7, 200 nmol/L phenylephrine, mean ± SD from three experiments, read-out: EC50 for modulating the phenylephrine CRE response",6.5 ± 4.8 µM
same,CRE response in the absence of phenylephrine,[1]; diazepam alone,did not induce a CRE response
same,EC50,"[6]; COS-7, 800 nmol/L phenylephrine, mean ± SD from three experiments, read-out: EC50 for modulating the phenylephrine CRE response",7.8 ± 1.9 µM
same,CRE response in the absence of phenylephrine,[6]; diazepam alone,did not induce a CRE response
same,QAPB displacement,[7],neither diazepam nor lorazepam displaced QAPB at either receptor
same,Cooperativity with phenylephrine in QAPB displacement,[7]; [18],No cooperativity between diazepam and phenylephrine was observed
same,QAPB displacement,[8],neither diazepam nor lorazepam displaced QAPB at either receptor
same,Cooperativity with phenylephrine in QAPB displacement,[8]; [18],No cooperativity between diazepam and phenylephrine was observed
same,IC50,[9],9 µM
same,Modulation of isoprenaline CRE efficacy,[10],significantly increased the CRE efficacy of isoprenaline
same,Modulation of GPR68 CRE response,[11],did not significantly increase the CRE response of GPR68
same,Modulation of forskolin potency in CRE assay,[12],positively modulated the potency
same,Competition with 3H‐rolipram,[13],competes with ^3H‐rolipram
same,Effect on Ca2+ mobilization,[14],had no effect
same,Effect on Ca2+ mobilization,[15],had no effect
same,Modulation of phenylephrine‐induced CRE response,[16],positively modulated
O=C1Nc2ccc(Cl)cc2C(c2ccccc2Cl)=NC1O (stereo not shown) [lorazepam],"STD NMR signals, interpretation",[17],nonspecific interactions with detergent micelles
same,QAPB displacement,[7],neither diazepam nor lorazepam displaced QAPB at either receptor
same,QAPB displacement,[8],neither diazepam nor lorazepam displaced QAPB at either receptor
same,Potency relative to diazepam,[9],less potent than diazepam
same,Modulation of GPR68 CRE response,[11],positively modulated the CRE response
same,Effect on Ca2+ mobilization,[14],had no effect
same,Effect on Ca2+ mobilization,[15],had no effect
COC(=O)C1=C(C)NC(C)=C(C(=O)OC2CCCN(Cc3ccccc3)C2)C1c1cccc([N+](=O)[O-])c1 (stereo not shown) [benidipine],Effect of inhibitor on diazepam modulation of phenylephrine‐stimulated CRE response,[1]; 50 μmol/L diazepam,significantly reduced both the phenylephrine response and the diazepam modulation of the CRE response
same,Effect of inhibitor on diazepam modulation of forskolin‐stimulated CRE response,[2]; 50 μmol/L diazepam,had no effect
CNC[C@H](O)c1cccc(O)c1 [phenylephrine],QAPB displacement,[7],displaced QAPB at both receptor subtypes
same,QAPB displacement,[8],displaced QAPB at both receptor subtypes
same,Agonist stimulation of calcium mobilization,[14]; [19],stimulated calcium mobilization
same,Agonist stimulation of calcium mobilization,[15]; [19],stimulated calcium mobilization
COc1ccc(S(=O)(=O)N(CCO)c2ccccc2CN(C)C/C=C/c2ccc(Cl)cc2)cc1 [KN‐93],Effect of inhibitor on diazepam modulation of phenylephrine‐stimulated CRE response,[1]; 50 μmol/L diazepam,had no significant effect
same,Effect of inhibitor on diazepam modulation of forskolin‐stimulated CRE response,[2]; 50 μmol/L diazepam,had no significant effect
CC(C)Cn1c(=O)n(C)c(=O)c2[nH]cnc21 [IBMX],"Cotreatment with diazepam, effect on phenylephrine CRE response",[1]; 50 μmol/L diazepam,had no additional positive modulatory effect
same,Modulation of phenylephrine CRE response by PDE inhibitor,[1],positively modulated the CRE response of phenylephrine to a similar level as diazepam
same,"Cotreatment with diazepam, effect on forskolin CRE response",[2]; 50 μmol/L diazepam,no additive effect was observed
same,Modulation of forskolin CRE response by PDE inhibitor,[2],positively modulated the CRE response of forskolin
COC(=O)C1=C(C)NC(C)=C([N+](=O)[O-])[C@@H]1c1ccccc1C(F)(F)F [(R)‐(+)‐Bay K 8644],Effect of inhibitor on diazepam modulation of phenylephrine‐stimulated CRE response,[1]; 50 μmol/L diazepam,had no significant effect
same,Effect of inhibitor on diazepam modulation of forskolin‐stimulated CRE response,[2]; 50 μmol/L diazepam,had no significant effect
O=C1CN=C(c2ccccc2Cl)c2cc([N+](=O)[O-])ccc2N1 [clonazepam],Potency relative to diazepam,[9],less potent than diazepam
O=C1CN=C(c2ccccc2)c2cc([N+](=O)[O-])ccc2N1 [nitrazepam],Potency relative to diazepam,[9],less potent than diazepam
CN1CCc2cc3c(cc2[C@H]1[C@@H]1OC(=O)c2c1ccc1c2OCO1)OCO3 [bicuculline],Effect of inhibitor on diazepam modulation of phenylephrine‐stimulated CRE response,[1]; 50 μmol/L diazepam,had no effect
same,Effect of inhibitor on diazepam modulation of forskolin‐stimulated CRE response,[2]; 50 μmol/L diazepam,had no effect
